Measurements as given in US11459336B2, “Pyrazine carbamates and their use as GluN2B receptor modulators” (JANSSEN PHARMACEUTICA NV, priority 2019, dated 2022).

Each molecule was assayed against T1, human GluN1/GluN2B NMDA receptors (Homo sapiens, UniProt Q13224) (assay: Calcium flux (FLIPR) assay on cloned human GluN1/GluN2B ion channels expressed in mammalian cells, standard assay). Settings: glutamate ~EC40, 10 μM glycine, stable cell line with Tet-On induced expression.
T1 construct: expressed in transfected cells
T1 sequence (Q13224 27-1484, other chains not shown): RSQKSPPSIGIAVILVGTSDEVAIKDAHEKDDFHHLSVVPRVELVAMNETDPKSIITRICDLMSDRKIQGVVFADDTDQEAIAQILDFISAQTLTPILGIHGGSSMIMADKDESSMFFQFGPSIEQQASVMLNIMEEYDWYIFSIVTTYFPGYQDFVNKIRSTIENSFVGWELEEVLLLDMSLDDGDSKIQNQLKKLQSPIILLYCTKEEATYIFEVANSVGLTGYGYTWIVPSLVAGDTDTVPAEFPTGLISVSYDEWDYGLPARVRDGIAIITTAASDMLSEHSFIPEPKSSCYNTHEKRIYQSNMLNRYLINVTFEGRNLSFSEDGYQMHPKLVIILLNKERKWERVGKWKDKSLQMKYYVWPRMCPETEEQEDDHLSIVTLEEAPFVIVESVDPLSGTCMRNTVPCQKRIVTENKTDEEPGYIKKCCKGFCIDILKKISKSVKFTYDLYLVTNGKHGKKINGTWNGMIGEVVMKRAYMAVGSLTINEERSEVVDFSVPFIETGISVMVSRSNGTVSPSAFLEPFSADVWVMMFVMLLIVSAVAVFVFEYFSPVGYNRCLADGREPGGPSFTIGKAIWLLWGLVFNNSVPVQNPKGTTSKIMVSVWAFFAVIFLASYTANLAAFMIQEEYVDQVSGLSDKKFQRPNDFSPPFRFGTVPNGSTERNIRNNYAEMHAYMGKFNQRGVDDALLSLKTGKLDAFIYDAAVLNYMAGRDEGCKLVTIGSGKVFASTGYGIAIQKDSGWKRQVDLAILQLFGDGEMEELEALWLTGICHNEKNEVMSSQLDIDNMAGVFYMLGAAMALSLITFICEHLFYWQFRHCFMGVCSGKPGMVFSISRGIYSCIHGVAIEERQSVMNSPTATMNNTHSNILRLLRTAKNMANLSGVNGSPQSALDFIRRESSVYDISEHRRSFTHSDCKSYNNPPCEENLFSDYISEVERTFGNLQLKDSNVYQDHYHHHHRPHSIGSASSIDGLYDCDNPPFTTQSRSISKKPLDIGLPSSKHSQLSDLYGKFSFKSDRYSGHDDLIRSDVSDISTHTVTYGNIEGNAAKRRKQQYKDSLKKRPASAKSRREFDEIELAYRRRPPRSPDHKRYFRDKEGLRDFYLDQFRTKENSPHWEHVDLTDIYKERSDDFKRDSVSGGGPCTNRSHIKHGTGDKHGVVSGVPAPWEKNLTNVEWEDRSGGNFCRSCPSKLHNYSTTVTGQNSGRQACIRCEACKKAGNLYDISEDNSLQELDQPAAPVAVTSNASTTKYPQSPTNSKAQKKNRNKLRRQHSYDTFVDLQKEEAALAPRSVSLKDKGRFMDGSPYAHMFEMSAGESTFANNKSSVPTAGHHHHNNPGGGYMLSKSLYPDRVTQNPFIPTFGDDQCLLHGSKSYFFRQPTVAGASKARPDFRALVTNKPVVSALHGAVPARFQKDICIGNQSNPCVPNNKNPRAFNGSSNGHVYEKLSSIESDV
Format: cell-based
Method: NMDA receptors are ion channels that are highly permeable to Ca^2+ ions, rendering it possible to monitor NMDA receptor function using cell-based calcium flux assay. In this assay, co-agonists glutamate and glycine are added to cells heterologously expressing human GluN1/GluN2B NMDA receptors to initiate cellular Ca^2+ influx. The time course of the changes in intracellular calcium is measured using a fluorescent dye and a FLIPR (Fluorometric Imaging Plate Reader) device.
Twenty four hours before measurements, the expression of the NMDA receptors in the stable cell line is induced with Tet-On inducible system in the presence of a non-selective NMDA receptor blocker. On the day of the experiment, cell culture media is carefully washed and the cells are loaded with Calcium 5 Dye Kit (Molecular Devices) in dye loading buffer containing 137 mM NaCl, 4 mM KCl, 2 mM CaCl2, 0.5 mM MgCl2 (standard assay) or 1.5 mM MgCl2 (HTS assay), 10 mM HEPES and 5 mM D-glucose; pH 7.4. After 1 h incubation at the room temperature, the dye is washed away with the assay buffer (137 mM NaCl (standard assay) or 150 mM (HTS assay), 4 mM KCl (standard assay) or 3 mM (HTS assay), 2 mM CaCl2, 0.01 mM EDTA, 10 mM HEPES and 5 mM D-glucose; pH 7.4) In the FLIPR TETRA reader, various concentrations of the test compounds are added to the cells for 5 min while fluorescence is monitored to detect potential agonist activity. Next, co-agonists, glutamate and glycine are added for another 5 minutes. The concentration of glutamate corresponding to ˜EC40 (standard assay) or EC40 (HTS assay) is used to maximize the assay's signal window and ability to detect NMDA receptor antagonists and negative allosteric modulators. A saturating concentration (10 μM) of glycine is also present in the assay. A non-selective NMDA receptor antagonist, (+)MK-801 is used as a positive control for antagonist activity. The fluorescent signal in the presence of test compounds is quantified and normalized to the signal defined by the appropriate control wells.

| IC50 | Compound |
| --- | --- |
| 20 nM | C[C@H]1CN(Cc2cncc(-c3ccc(F)c(OC(F)F)c3)n2)C(=O)O1 [Example 21, (5S)-3-[[6-[3-(Difluoromethoxy)-4-fluoro-phenyl]pyrazin-2-yl]methyl]-5-methyl-oxazolidin-2-one] |
| 65 nM | O=C1OCCCN1Cc1cncc(-c2ccc(F)c(C(F)F)c2)n1 [Example 9, 3-[[6-[3-(Difluoromethyl)-4-fluoro-phenyl]pyrazin-2-yl]methyl]-1,3-oxazinan-2-one] |
| 2000 nM | O=C1OC(C(=O)N2CCC2)CN1Cc1cncc(-c2ccc(Cl)c(OC(F)F)c2)n1 (stereo not shown) [Example 57, 5-(Azetidine-1-carbonyl)-3-[[6-[4-chloro-3-(difluoromethoxy)phenyl]pyrazin-2-yl]methyl]oxazolidin-2-one] |
| 37 nM | Cc1ncc(-c2ccc(F)c(C(F)F)c2)nc1CN1CC2(CC2)OC1=O [Example 10, 5-[[6-[3-(Difluoromethyl)-4-fluoro-phenyl]-3-methyl-pyrazin-2-yl]methyl]-7-oxa-5-azaspiro[2.4]heptan-6-one] |
| 66 nM | Cc1ncc(-c2ccc(F)c(OC(F)F)c2)nc1CN1CC2(CC2)OC1=O [Example 23, 5-[[6-[3-(Difluoromethoxy)-4-fluoro-phenyl]-3-methyl-pyrazin-2-yl]methyl]-7-oxa-5-azaspiro[2.4]heptan-6-one] |
| 1140 nM | CC1(C)CN(Cc2cncc(-c3ccc(F)c(OC(F)F)c3)n2)C(=O)O1 [Example 17, 3-[[6-[3-(Difluoromethoxy)-4-fluoro-phenyl]pyrazin-2-yl]methyl]-5,5-dimethyl-oxazolidin-2-one] |
| 127 nM | Cc1ncc(-c2cccc(C(C)(F)F)c2)nc1CN1CCCOC1=O [Example 45, 3-[[6-[3-(1,1-Difluoroethyl)phenyl]-3-methyl-pyrazin-2-yl]methyl]-1,3-oxazinan-2-one] |
| 21 nM | C[C@@H]1COC(=O)N1Cc1cncc(-c2ccc(Cl)c(OC(F)F)c2)n1 [Example 33, (4R)-3-[[6-[4-Chloro-3-(difluoromethoxy)phenyl]pyrazin-2-yl]methyl]-4-methyl-oxazolidin-2-one] |
| 61 nM | O=C1OC2(CCN1Cc1cncc(-c3ccc(F)c(C(F)F)c3)n1)CC2 [Example 52, 6-[[6-[3-(Difluoromethyl)-4-fluoro-phenyl]pyrazin-2-yl]methyl]-8-oxa-6-azaspiro[2.5]octan-7-one] |
| 20 nM | C[C@H]1CN(Cc2cncc(-c3ccc(Cl)c(OC(F)F)c3)n2)C(=O)O1 [Example 32, (5S)-3-[[6-[4-Chloro-3-(difluoromethoxy)phenyl]pyrazin-2-yl]methyl]-5-methyl-oxazolidin-2-one] |
| 48 nM | Cc1ncc(-c2ccc(F)c(OC(F)F)c2)nc1CN1C[C@H](C)OC1=O [Example 27, (5S)-3-[[6-[3-(Difluoromethoxy)-4-fluoro-phenyl]-3-methyl-pyrazin-2-yl]methyl]-5-methyl-oxazolidin-2-one] |
| 17 nM | O=C1OCCCN1Cc1cncc(-c2ccc(F)c(OC(F)F)c2)n1 [Example 22, 3-[[6-[3-(Difluoromethoxy)-4-fluoro-phenyl]pyrazin-2-yl]methyl]-1,3-oxazinan-2-one] |
| 291 nM | C[C@H]1COC(=O)N1Cc1cncc(-c2ccc(F)c(OC(F)F)c2)n1 [Example 19, (4S)-3-[[6-[3-(Difluoromethoxy)-4-fluoro-phenyl]pyrazin-2-yl]methyl]-4-methyl-oxazolidin-2-one] |
| 13 nM | O=C1OCCCN1Cc1cncc(-c2ccc(Cl)c(OC(F)F)c2)n1 [Example 35, 3-[[6-[4-Chloro-3-(difluoromethoxy)phenyl]pyrazin-2-yl]methyl]-1,3-oxazinan-2-one] |
| 86 nM | C[C@H]1COC(=O)N1Cc1cncc(-c2ccc(Cl)c(OC(F)F)c2)n1 [Example 34, (4S)-3-[[6-[4-Chloro-3-(difluoromethoxy)phenyl]pyrazin-2-yl]methyl]-4-methyl-oxazolidin-2-one] |
| 4510 nM | CC1(C)CN(Cc2cncc(-c3cccc(C(C)(F)F)c3)n2)C(=O)O1 [Example 39, 3-[[6-[3-(1,1-Difluoroethyl)phenyl]pyrazin-2-yl]methyl]-5,5-dimethyl-oxazolidin-2-one] |
| 39 nM | Cc1ncc(-c2ccc(F)c(OC(F)F)c2)nc1CN1CCCOC1=O [Example 28, 3-[[6-[3-(Difluoromethoxy)-4-fluoro-phenyl]-3-methyl-pyrazin-2-yl]methyl]-1,3-oxazinan-2-one] |

| IC50 | Compound |
| --- | --- |
| 288 nM | C[C@@H]1COC(=O)N1Cc1cncc(-c2ccc(F)c(C(F)F)c2)n1 [Example 7, (4R)-3-[[6-[3-(Difluoromethyl)-4-fluoro-phenyl]pyrazin-2-yl]methyl]-4-methyl-oxazolidin-2-one] |
| 599 nM | CN1CC2(C1)CN(Cc1cncc(-c3ccc(Cl)c(OC(F)F)c3)n1)C(=O)O2 [Example 68, 6-[[6-[4-Chloro-3-(difluoromethoxy)phenyl]pyrazin-2-yl]methyl]-2-methyl-8-oxa-2,6-diazaspiro[3.4]octan-7-one] |
| 73 nM | O=C1OCCN1Cc1cncc(-c2ccc(F)c(OC(F)F)c2)n1 [Example 2, 3-[[6-[3-(Difluoromethoxy)-4-fluoro-phenyl]pyrazin-2-yl]methyl]oxazolidin-2-one] |
| 624 nM | C[C@H]1COC(=O)N1Cc1cncc(-c2ccc(F)c(C(C)(F)F)c2)n1 [Example 47, (4S)-3-[[6-[3-(1,1-Difluoroethyl)-4-fluoro-phenyl]pyrazin-2-yl]methyl]-4-methyl-oxazolidin-2-one] |
| 124 nM | CC(F)(F)c1cccc(-c2cncc(CN3CCC4(CC4)OC3=O)n2)c1 [Example 48, 6-[[6-[3-(1,1-Difluoroethyl)phenyl]pyrazin-2-yl]methyl]-8-oxa-6-azaspiro[2.5]octan-7-one] |
| 48 nM | O=C1OC2(CCN1Cc1cncc(-c3ccc(F)c(OC(F)F)c3)n1)CC2 [Example 49, 6-[[6-[3-(Difluoromethoxy)-4-fluoro-phenyl]pyrazin-2-yl]methyl]-8-oxa-6-azaspiro[2.5]octan-7-one] |
| 113 nM | Cc1ncc(-c2ccc(Cl)c(OC(F)F)c2)nc1CN1CC2(CC2)OC1=O [Example 36, 5-[[6-[4-Chloro-3-(difluoromethoxy)phenyl]-3-methyl-pyrazin-2-yl]methyl]-7-oxa-5-azaspiro[2.4]heptan-6-one] |
| 78 nM | Cc1ncc(-c2ccc(F)c(OC(F)F)c2)nc1CN1C(=O)OC[C@H]1C [Example 24, (4R)-3-[[6-[3-(Difluoromethoxy)-4-fluoro-phenyl]-3-methyl-pyrazin-2-yl]methyl]-4-methyl-oxazolidin-2-one] |
| 102 nM | Cc1ncc(-c2ccc(F)c(C(F)F)c2)nc1CN1CCC2(CC2)OC1=O [Example 53, 6-[[6-[3-(Difluoromethyl)-4-fluoro-phenyl]-3-methyl-pyrazin-2-yl]methyl]-8-oxa-6-azaspiro[2.5]octan-7-one] |
| 167 nM | C[C@H]1CN(Cc2cncc(-c3cccc(C(C)(F)F)c3)n2)C(=O)O1 [Example 41, (5S)-3-[[6-[3-(1,1-Difluoroethyl)phenyl]pyrazin-2-yl]methyl]-5-methyl-oxazolidin-2-one] |
| 20 nM | C[C@@H]1CN(Cc2cncc(-c3ccc(Cl)c(OC(F)F)c3)n2)C(=O)O1 [Example 31, (5R)-3-[[6-[4-Chloro-3-(difluoromethoxy)phenyl]pyrazin-2-yl]methyl]-5-methyl-oxazolidin-2-one] |
| 1360 nM | CC1(C)CN(Cc2cncc(-c3ccc(F)c(C(F)F)c3)n2)C(=O)O1 [Example 4, 3-[[6-[3-(Difluoromethyl)-4-fluoro-phenyl]pyrazin-2-yl]methyl]-5,5-dimethyl-oxazolidin-2-one] |
| 166 nM | C[C@@H]1COC(=O)N1Cc1cncc(-c2ccc(F)c(C(C)(F)F)c2)n1 [Example 46, (4R)-3-[[6-[3-(1,1-Difluoroethyl)-4-fluoro-phenyl]pyrazin-2-yl]methyl]-4-methyl-oxazolidin-2-one] |
| 50 nM | Cc1ncc(-c2ccc(F)c(C(F)F)c2)nc1CN1C[C@H](C)OC1=O [Example 14, (5S)-3-[[6-[3-(Difluoromethyl)-4-fluoro-phenyl]-3-methyl-pyrazin-2-yl]methyl]-5-methyl-oxazolidin-2-one] |
| 39 nM | C[C@@H]1CN(Cc2cncc(-c3cccc(C(C)(F)F)c3)n2)C(=O)O1 [Example 40, (5R)-3-[[6-[3-(1,1-Difluoroethyl)phenyl]pyrazin-2-yl]methyl]-5-methyl-oxazolidin-2-one] |
| 17 nM | CC(F)(F)c1cccc(-c2cncc(CN3CC4(CC4)OC3=O)n2)c1 [Example 38, 5-[[6-[3-(1,1-Difluoroethyl)phenyl]pyrazin-2-yl]methyl]-7-oxa-5-azaspiro[2.4]heptan-6-one] |
| 49 nM | O=C1OC2(CCN1Cc1cncc(-c3ccc(Cl)c(OC(F)F)c3)n1)CC2 [Example 50, 6-[[6-[4-Chloro-3-(difluoromethoxy)phenyl]pyrazin-2-yl]methyl]-8-oxa-6-azaspiro[2.5]octan-7-one] |
